The results in this text go back to patent publication US20060217418A1, “Substituted alkyl amido piperidines” (priority 2001, published 2006).

pKi: −log10 of the molar value.

T1 sequence (P97639 whole entry): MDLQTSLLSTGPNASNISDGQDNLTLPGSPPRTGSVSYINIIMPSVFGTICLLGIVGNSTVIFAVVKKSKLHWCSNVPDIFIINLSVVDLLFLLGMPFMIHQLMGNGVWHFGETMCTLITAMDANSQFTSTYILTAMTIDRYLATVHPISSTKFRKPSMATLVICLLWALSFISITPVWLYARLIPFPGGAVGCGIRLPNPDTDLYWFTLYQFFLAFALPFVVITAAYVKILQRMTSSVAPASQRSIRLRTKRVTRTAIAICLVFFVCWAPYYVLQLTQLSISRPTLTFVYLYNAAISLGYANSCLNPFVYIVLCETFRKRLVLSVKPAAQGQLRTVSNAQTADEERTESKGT

The assay addresses T1, rat MCH1 receptor (Rattus norvegicus, UniProt P97639).
T1 construct: operatively linked to DNA encoding the rat MCH1 receptor so as to permit expression thereof; expressed in transfected cells; host or cells: Human embryonic kidney Peak rapid 293 (Peakr293) cells, transient calcium phosphate transfection, membranes
In words: Radioligand binding assay at cloned rat MCH1 receptor ([3H]Compound A). The conditions noted are these: cloned rat MCH1, Peakr293 cell membranes, 0.08 nM [3H]Compound A, 25° C., 90 minutes; read-out: Ki(MCH-1).
For orientation: pKi means the Ki on a negative log10 scale, so that one unit is a factor of ten. `Cc1ccc(NC(=O)C(C)C)cc1C1CCN(CCCNC(=O)C2(c3ccc(Cl)cc3)CCC2)CC1` [Example 86]: the pKi is 8.49.

For `O=C(Nc1cccc(C2CCN(CCCNC(=O)C(c3ccc(F)cc3)c3ccc(F)cc3)CC2)c1)C1CC1` [Example 120, N-{3-[1-(3-{[2,2-BIS(4-FLUOROPHENYL)ACETYL]AMINO}PROPYL)-4-PIPERIDINYL] PHENYL}CYCLOPROPANECARBOXAMIDE], the pKi was 9.40. `CCCC(=O)Nc1cc(C2CCN(CCCNC(=O)C3(c4ccc(F)cc4)CCCC3)CC2)ccc1F` [Example 107]: the pKi is 6.99.

With `O=C(Nc1cccc(C2CCN(CCCNC(=O)C(c3ccccc3)c3ccccc3)CC2)c1)C1CC1` [Example 17], the pKi was 8.74.

`COC(C(=O)NCCCN1CCC(c2cccc(NC(=O)C(C)C)c2)CC1)c1ccc(Cl)c(Cl)c1` (centres unmarked) [Example 39]: the pKi is 7.49. With `CC(C)C(=O)Nc1cccc(C2CCN(CCCNC(=O)C(c3ccccc3)(c3ccccc3)c3ccccc3)CC2)n1` [Example 82], the pKi was 8.07. With `CC(C)OC(=O)Nc1cccc(C2CCN(CCCNC(=O)C(c3ccccc3)c3ccccc3)CC2)c1` [Example 144, Isopropyl 3-(1-{3-[(Diphenylacetyl)Amino]Propyl}-4-Piperidinyl) Phenylcarbamate], the pKi is 7.48. `CCC(C(=O)NCCCN1CCC(c2cccc(NC(=O)C3CC3)c2)CC1)(c1ccccc1)c1ccccc1` [Example 122, N-[3-(1-{3-[(2,2-DIPHENYLBUTANOYL)AMINO]PROPYL}-4-PIPERIDINYL)PHENYL] CYCLOPROPANECARBOXAMIDE]: the pKi was 8.32.

`CC(C)(C)CC(=O)Nc1cccc(C2CCN(CCCNC(=O)C(c3ccccc3)c3ccccc3)CC2)c1` [Example 19]: the pKi is 7.63. Next, `Nc1cccc(C2CCN(CCCNC(=O)C(c3ccccc3)c3ccccc3)CC2)c1` [Example 152]: 6.94; `CCCC(=O)Nc1cccc(C2CCN(CCCNC(=O)C(c3ccccc3)(c3ccccc3)c3ccccc3)CC2)c1` [Example 97]: 8.44. Turning to `CC(C)C(=O)Nc1cc(C2CCN(CCCNC(=O)C(c3ccccc3)c3ccccc3)CC2)ccc1F` [Example 56], the pKi was 8.35. Consider `CC(=O)Nc1cccc(C2CCN(CCCNC(=O)C(c3ccc(Cl)cc3)c3ccc(Cl)cc3)CC2)c1` [Example 55], for which the pKi was 9.52. For the molecule `CC(=O)Nc1cccc(C2CCN(CCCNC(=O)C3(c4ccc(Cl)cc4)CCCC3)CC2)c1` [Example 78, N-(3-{4-[3-(ACETYLAMINO)PHENYL]-1-PIPERIDINYL}PROPYL)-1-(4-CHLOROPHENYL) CYCLOPENTANECARBOXAMIDE], the pKi is 8.17. Next, `O=C(Nc1cccc(C2CCN(CCCNC(=O)C(c3ccccc3)(c3ccccc3)c3ccccc3)CC2)c1)C1CC1` [Example 114]: 8.40. Next, `CC(C)C(=O)Nc1cccc(C2CCN(CCCNC(=O)C(C)(c3ccccc3)c3ccccc3)CC2)c1` [Example 30]: 8.28; `CCC(=O)Nc1cccc(C2CCN(CCCNC(=O)C3(c4ccc(Cl)cc4)CCC3)CC2)c1` [Example 58, 1-(4-CHLOROPHENYL)-N-(3-{4-[3-PROPIONYLAMINO)PHENYL]-1-PIPERIDINYL} PROPYL)CYCLOBUTANECARBOXAMIDE]: 7.34. In the case of `CC(C)C(=O)Nc1cc(C2CCN(CCCNC(=O)C(C)(c3ccccc3)c3ccccc3)CC2)ccc1F` [Example 51] it was 7.93; in that of `Cc1ccc(NC(=O)C(C)C)cc1C1CCN(CCCNC(=O)C2(c3ccc(F)cc3Cl)CCCCC2)CC1` [Example 134], 8.62; in that of `Cc1ccc(C(C(=O)NCCCN2CCC(c3cccc(NC(=O)C(C)C)c3)CC2)c2ccc(C)cc2)cc1` [Example 34, N-{3-[1-(3-{[BIS(4-METHYLPHENYL)ACETYL]AMINO}PROPYL)-4-PIPERIDINYL] PHENYL}-2-METHYLPROPANAMIDE], 8.64.

Turning to `CC(C)C(=O)Nc1cccc(C2CCN(CCCNC(=O)C3(c4ccc(F)cc4Cl)CCCC3)CC2)c1` [Example 38], the pKi was 7.55. In the case of `CCCCCC(C(=O)NCCCN1CCC(c2cccc(NC(=O)C(C)C)c2)CC1)(c1ccccc1)c1ccccc1` [Example 11] it was 8.08. Next, `CCC(C(=O)NCCCN1CCC(c2cccc(NC(=O)C(C)C)c2)CC1)(c1ccccc1)c1ccccc1` [Example 12]: 7.86; `CC(C)OC(=O)Nc1cccc(C2CCN(CCCNC(=O)C3(c4ccc(F)cc4Cl)CCCCC3)CC2)c1` [Example 147, ISOPROPYL 3-{1-[3-({[1-(2-CHLORO-4-FLUOROPHENYL)CYCLOHEXYL]CARBONYL} AMINO)PROPYL]-4-PIPERIDINYL}PHENYLCARBAMATE]: 7.38; `CC(C)C(=O)Nc1cc(C2CCN(CCCNC(=O)C(c3ccc(F)cc3)c3ccc(F)cc3)CC2)ccc1F` [Example 48, N-{5-[1-(3-{[BIS(4-FLUOROPHENYL)ACETYL]AMINO}PROPYL)-4-PIPERIDINYL]-2-FLUORO PHENYL}2-METHYLPROPANAMIDE]: 8.55. In the case of `CC(C)C(=O)Nc1cccc(C2CCN(CCCNC(=O)C3(c4ccc(F)cc4)CCCCC3)CC2)c1` [Example 40, 1-(4-FLUOROPHENYL)-N-(3-{4-[3-(ISOBUTYRYLAMINO)PHENYL]-1-PIPERIDINYL} PROPYL)CYCLOHEXANECARBOXAMIDE] it was 8.10; in that of `CCCC(=O)Nc1cccc(C2CCN(CCCNC(=O)C3(c4ccc(Cl)cc4)CCCCC3)CC2)c1` [Example 99, N-(3-{4-[3-(BUTYRYLAMINO)PHENYL]-1-PIPERIDINYL}PROPYL)-1-(4-CHLOROPHENYL) CYCLOHEXANECARBOXAMIDE], 8.54; in that of `Cc1c(NC(=O)C(C)C)cccc1C1CCN(CCCNC(=O)C(c2ccccc2)c2ccccc2)CC1` [Example 33], 6.30. With `CC(C)C(=O)Nc1ccc(F)c(C2CCN(CCCNC(=O)C(F)(F)c3ccccc3)CC2)c1` [Example 136], the pKi was 7.31.

Consider `CCC(=O)Nc1cccc(C2CCN(CCCNC(=O)C(c3ccccc3)c3c(C)cc(C)cc3C)CC2)c1` (centres unmarked) [Example 14, N-[3-(1-{3-[(2-MESITYL-2-PHENYLACETYL)AMINO]PROPYL}-4-PIPERIDINYL)PHENYL] PROPANAMIDE], for which the pKi was 8.57. Regarding `CC(C)C(=O)Nc1cccc(C2CCN(CCCNC(=O)C3(c4ccc(Cl)cc4)CCCC3)CC2)n1` [Example 84], the pKi was 7.90.

`CC(C)C(=O)Nc1cccc(C2CCN(CCCNC(=O)C3(c4ccc(Cl)cc4Cl)CC3)CC2)c1` [Example 41, 1-(2,4-DICHLOROPHENYL-N-(3-{4-[3-(ISOBUTYRYLAMINO)PHENYL]-1-PIPERIDINYL} PROPYL)CYCLOPROPANECARBOXAMIDE]: the pKi was 7.40. In the case of `CC(=O)Nc1cccc(C2CCN(CCCNC(=O)C(C)(C)c3ccc(Cl)cc3)CC2)c1` [Example 79, N-(3-{4-[3-(ACETYLAMINO)PHENYL]-1-PIPERIDINYL}PROPYL)-2-(4-CHLORO PHENYL)-2-METHYLPROPANAMIDE] it was 8.23; in that of `CCCC(=O)Nc1cc(C2CCN(CCCNC(=O)C(c3ccc(Cl)cc3)c3ccc(Cl)cc3)CC2)ccc1F` [Example 108], 8.72. In the case of `CC(C)C(=O)Nc1cccc(C2CCN(CCCNC(=O)C3(c4ccc(Cl)cc4)CCC3)CC2)n1` [Example 73, 1-(4-CHLOROPHENYL)-N-(3-{4-[6-(ISOBUTYRYLAMINO)-2-PYRIDINYL]-1-PIPERIDINYL} PROPYL)CYCLOBUTANECARBOXAMIDE] it was 7.49; in that of `Cc1ccc(NC(=O)C(C)C)cc1C1CCN(CCCNC(=O)C(O)c2ccc(F)c(F)c2)CC1` (centres unmarked) [Example 153, N-{3-[1-(3-{[(3,4-difluorophenyl)(hydroxy)acetyl]amino}propyl)-4-piperdinyl]-4-methylphenyl}-2-methylpropanamide], 7.69. For the molecule `CC(C)C(=O)Nc1cccc(C2CCN(CCCNC(=O)C(c3ccccc3)(c3ccccc3)c3ccccc3)CC2)c1` [Example 59], the negative-log Ki (pKi) was 8.37. For `Cc1ccc(NC(=O)C(C)C)cc1C1CCN(CCCNC(=O)C(C)c2ccc(Cl)cc2)CC1` (centres unmarked) [Example 100], the pKi was 8.30. Take `CC(C)OC(=O)Nc1cccc(C2CCN(CCCNC(=O)C(c3ccc(Cl)cc3)c3ccc(Cl)cc3)CC2)c1` [Example 143, Isopropyl 3-[1-(3-{[bis(4-chlorophenyl)acetyl]amino}propyl)-4-piperidinyl]phenylcarbamate]: the pKi was 8.21. Next, `Cc1ccc(C(C(=O)NCCCN2CCC(c3cccc(NC(=O)C4CC4)c3)CC2)c2ccc(C)cc2)cc1` [Example 111, N-{3-[1-(3-{[2,2-BIS(4-METHYLPHENYL)ACETYL]AMINO}PROPYL)-4-PIPERIDINYL] PHENYL}CYCLOPROPANECARBOXAMIDE]: 8.92; `CC(C)C(=O)Nc1cccc(C2CCN(CCCNC(=O)C3(c4ccc(Cl)cc4)CC3)CC2)c1` [Example 44, 1-(4-CHLOROPHENYL)-N-(3-{4-[3-(ISOBUTYRYLAMINO)PHENYL]-1-PIPERIDINYL} PROPYL)CYCLOPROPANECARBOXAMIDE]: 7.71. Next, `Cc1ccc(NC(=O)C(C)C)cc1C1CCN(CCCNC(=O)C2(c3ccc(Cl)cc3)CCCC2)CC1` [Example 81]: 8.49. In the case of `Cc1ccc(NC(=O)C(C)C)cc1C1CCN(CCCNC(=O)C(F)(F)c2ccccc2)CC1` [Example 124] it was 7.40. Take `Cc1ccc(NC(=O)C(C)C)cc1C1CCN(CCCNC(=O)C(c2ccccc2)(c2ccccc2)c2ccccc2)CC1` [Example 94]: the pKi was 8.51. In the case of `CC(C)C(=O)Nc1cc(C2CCN(CCCNC(=O)C(C)c3ccc(F)cc3)CC2)ccc1F` (centres unmarked) [Example 46] it was 7.35; in that of `CC(C)C(=O)Nc1cc(C2CCN(CCCNC(=O)C(c3ccc(F)cc3)c3ccc(F)cc3)CC2)c(F)cc1F` [Example 165, N-{5-[1-(3-{[bis(4-fluorophenyl)acetyl]amino}propyl)-4-piperidinyl]-2,4-difluorophenyl}-2-methylpropanamide], 8.96; in that of `CCCC(=O)Nc1cccc(C2CCN(CCCNC(=O)C(c3ccc(F)cc3)c3ccc(F)cc3)CC2)c1` [Example 27, N-{3-[1-(3-{[2,2-BIS(4-FLUOROPHENYL)ACETYL]AMINO}PROPYL)-4-PIPERIDINYL] PHENYL}BUTANAMIDE], 8.96.
